Laboratory results reported in the NIST ThermoML archive (doi:10.1016/j.tca.2018.05.020).
± gives the expanded uncertainty stated by the source.

Columns and labels:
[1] = DSC
[2] = Molar enthalpy of transition or fusion; details: Crystal; DSC

Triple point temperature ([1]; Crystal): 469.15 ± 1 K
Glass transition temperature ([1]; Glass): 85.00 ± 1 °C
Molar enthalpy of transition or fusion [2]: 8.61 ± 0.222 kcal/mol
SMILES: CNC(=O)c1ccc(N2C(=S)N(c3ccc(C#N)c(C(F)(F)F)c3)C(=O)C2(C)C)cc1F [Enzalutamide]
